Measurements from PMC11643516, “Design, Synthesis, Structural Insights, Tyrosinase Inhibition, and Sun Protection Factor of New Thiosemicarbazone Derivatives” (Molecules, 2024).
Structures can show the parent of a compound that is named as a salt. Where two headings read alike, the source gives them in different places.

Legend:
[1] = target: Tyrosinase; details: L-DOPA as substrate, read-out: Tyrosinase Inhibitory Activity IC50, cited from earlier work
[2] = test system: B16 melanoma cells; design: method as in PMID 20863702; details: read-out: Anti-Melanogenesis Activity IC50; cited from earlier work
[3] = target: mushroom tyrosinase; assay: Mushroom tyrosinase inhibition assay (L-DOPA, dopachrome formation at 492 nm); type: biochemical; details: L-DOPA substrate, pH 6.8, 37 °C; mean ± SD of triplicate experiments; read-out: IC50 against mushroom tyrosinase activity
Description: Mushroom Tyr inhibition was assessed as described previously with minor modifications. […] L-DOPA was then added and the dopachrome formation was monitored at 492 nm. The measurements were taken using a FLUOstar OPTIMA (BMG Labtech, Offenburg, Germany). The IC50 value was determined by analysing dose–response curves.

[4] = DPPH radical scavenging assay; details: 0.1 mM DPPH, 30 min in the dark, 517 nm; mean ± SD of triplicate
Description: Radical scavenging activity of the thiosemicarbazone derivatives was estimated according to the previously reported method with slight modification using the stable DPPH radical. A solution of 0.1 mM DPPH radical was added to various concentrations of the compounds. The absorbance of the DPPH radical without an antioxidant, i.e., blank, was also measured. The mixture was shaken vigorously and kept at room temperature for 30 min in the dark. The absorbance of the reaction mixture was measured at 517 nm spectrophotometrically. All the determinations were performed in triplicate.

[5] = ABTS radical scavenging assay; details: 734 nm after 1 min of incubation; mean ± SD of triplicate
Description: Samples of each compound (10 µL) were added to 990 µL of ABTS, and the reduction in the blue-green radical ABTS^+• by hydrogen-donating antioxidants was evaluated by measuring the absorbance at 734 nm after 1 min of incubation. All the measurements were carried out at least three times.

Structure (SMILES) | melting point [°C] | IC50 [3] [µM] | DPPH (% I ± SD), percentage of inhibition of free radicals [4] [%] | ABTS (% I ± SD), percentage of inhibition of free radicals [5] [%] | also measured
NC(=S)N/N=C/c1ccc(OS(=O)(=O)c2ccccc2)cc1 (as salt: benzenesulfonate) [TCBS1, (E)-4-((2-carbamothioylhydrazineylidene)methyl)phenyl benzenesulfonate] | 159 to 160 | – | – | – | –
NC(=S)N/N=C/c1ccc(OS(=O)(=O)c2ccc([N+](=O)[O-])cc2)cc1 (as salt: benzenesulfonate) [TCBS2, (E)-4-((2-carbamothioylhydrazineylidene)methyl)phenyl 4-nitrolbenzenesulfonate] | 226 to 228 | – | – | – | –
NC(=S)N/N=C/c1ccc(OS(=O)(=O)c2ccc(Cl)cc2)cc1 (as salt: benzenesulfonate) [TCBS5, (E)-4-((2-carbamothioylhydrazineylidene)methyl)phenyl 4-chlorobenzenesulfonate] | 194 to 196 | – | – | – | –
NC(=S)N/N=C/c1ccc(Cl)cc1 [Compound 1] | – | – | – | – | IC50 ([1]; ref 17): 0.84 µM; IC50 ([1]; ref 18): 1.9 µM
COc1ccc(/C=N/NC(N)=S)cc1 [Compound 2] | – | – | – | – | IC50 ([1]; ref 17): 0.44 µM; IC50 ([1]; ref 20): 1.48 µM
NC(=S)N/N=C/c1ccc([N+](=O)[O-])cc1 [Compound 3] | – | – | – | – | IC50 ([1]; ref 19): 1.9 µM
NC(=S)N/N=C/c1ccccc1 [Compound 4] | – | – | – | – | IC50 [2]: > 10 µM
NC(=S)N/N=C/c1cccc2ccccc12 [Compound 5] | – | – | – | – | IC50 [2]: 1.1 µM
NC(=S)N/N=C/c1ccncc1 [Compound 6] | – | – | – | – | IC50 [2]: > 30 µM
NC(=S)N/N=C/c1ccc(OS(=O)(=O)c2ccccc2)cc1 [TCBS1, (E)-4-((2-carbamothioylhydrazineylidene)methyl)phenyl benzenesulfonate] | – | 0.44 ± 0.03 | 26 ± 2 | 39 ± 1 | –
NC(=S)N/N=C/c1ccc(OS(=O)(=O)c2ccc([N+](=O)[O-])cc2)cc1 [TCBS2, (E)-4-((2-carbamothioylhydrazineylidene)methyl)phenyl 4-nitrolbenzenesulfonate] | – | 0.66 ± 0.05 | 16 ± 2 | 25 ± 4 | –
COc1ccc(S(=O)(=O)Oc2ccc(/C=N/NC(N)=S)cc2)cc1 [TCBS3, (E)-4-((2-carbamothioylhydrazineylidene)methyl)phenyl 4-methoxylbenzenesulfonate] | 154 to 156 | 0.44 ± 0.01 | 33 ± 4 | 35 ± 1 | –
Cc1ccc(S(=O)(=O)Oc2ccc(/C=N/NC(N)=S)cc2)cc1 [TCBS4, (E)-4-((2-carbamothioylhydrazineylidene)methyl)phenyl 4-methylbenzenesulfonate] | 195 to 197 | 0.44 ± 0.01 | 20 ± 1 | 30 ± 2 | –
NC(=S)N/N=C/c1ccc(OS(=O)(=O)c2ccc(Cl)cc2)cc1 [TCBS5, (E)-4-((2-carbamothioylhydrazineylidene)methyl)phenyl 4-chlorobenzenesulfonate] | – | 0.71 ± 0.02 | 32 ± 5 | 22 ± 2 | –
CS(=O)(=O)Oc1ccc(/C=N/NC(N)=S)cc1 [TCMS1, (E)-4-((2-carbamothioylhydrazineylidene)methyl)phenyl methanesulfonate] | 224 to 226 | 1.6 ± 0.02 | 20 ± 2 | 42 ± 4 | –
